Results on 19 molecules are retold here after patent EP0069811A1, “Branched amides of L-aspartyl-D-amino acid dipeptides and compositions thereof” (PFIZER INC., priority 1981, dated 1983).

For test [1] the following is noted: cited from earlier work; for Sweetness potency: prior-art values.
For the next test, the system named is expert taste panel. Description: Sweetness potency by comparison of gustatory sweetness with a sucrose standard (expert taste panel). Format: in vivo. The settings on record: aqueous solutions compared with aqueous sucrose solutions of 7-9% by an expert taste panel. As to the method:
The sweetness potency of the instant compounds was determined by comparison of their gustatory sweetnesses with sucrose. Aqueous solutions of the compound of formula (I) diluted to a suitable range of concentrations were compared with a sucrose standard by an expert taste panel. Comparisons were generally made with aqueous sucrose solutions of 7-9%, i.e., 7-9 g. per 100 ml. Higher sucrose concentrations have a distinctive mouthfeel which may influence results and lower sucrose concentration are not indicative of normal use situations. If, for example a 0.014% solution of the compound of formula (I) is judged to be equally as sweet as a 7% sucrose solution, then the sweetness potency of that compound is 7/0.014 = 500 x sucrose. All of the sweetness potency values stated herein for the compounds of the invention were determined by this method. At threshold concentrations (i.e., the lowest concentration at which sweetness is first noticed, which for sucrose is ordinarily at concentrations in the range of 2-3%), the potency of a sweetener, such as the compounds of the invention, is generally twice that observed by comparison of its gustatory sweetness with 7-9% solutions of sucrose.

For another test, the system named is taste panel. Description: Taste panel evaluation of blends with sodium saccharin for taste acceptability and sweetness intensity against aqueous sucrose standards. The settings on record: single components. Format: in vivo. On the procedure: Blends of L-aspartyl-D-serine N-(2,2,4,4-tetra- methylthietan-3-yl)amide and sodium saccharin were prepared and evaluated for taste acceptability and sweetness intensity by comparison with aqueous sucrose standards.
The % synergy was calculated according to the following formula [formula] where A is the actual sweetness determined by averaging the taste panel results and T is the theoretical sweetness determined from the composition of the mixtures by weight e.g., for the 1:4 blend the theoretical sweetness is (1/5 x 1200) + (4/5 x 300) = 480.

Where a SMILES comes first, the peptide text is derived from it. [ ]: non-standard residue; d: D form. The star is where a group is joined. OiPr = CC(C)O*; NHBu = CCCCN*

In the case of `CC1CCC1C(=O)OC[C@@H](C)NC(=O)[C@@H](N)CC(=O)O` (some centres unmarked), the Sweetness potency in test [1] is recorded as 160 x sucrose.
Regarding `C[C@H](COC(=O)C1CCC1)NC(=O)[C@@H](N)CC(=O)O`, the Sweetness potency in test [1] was 220 x sucrose.
In the case of `C[C@H](COC(=O)C1CC1)NC(=O)[C@@H](N)CC(=O)O`, in test [1], the Sweetness potency is on record as 200 x sucrose.
`CC1CCCC(C)C1NC(=O)[C@@H](CO)NC(=O)[C@@H](N)CC(=O)O` (mixture of isomers) [Example 9, L-Aspartyl-D-serine N-(dl-cis,trans-2,6-dimethylcyclohexyl)amide] returned a Sweetness potency in the test on expert taste panel of 200 x sucrose.
`N[C@@H](CC(=O)O)C(=O)N[C@H](CO)C(=O)NC(C1CC1)C1CC1` [Example 1, L-Aspartyl-D-serine N-(dicyclopropylcarbinyl)amide]: the Sweetness potency with expert taste panel turned out to be 700 x sucrose.
In the test on expert taste panel, `CC(C)C(NC(=O)[C@@H](CO)NC(=O)[C@@H](N)CC(=O)O)C(C)C` [Example 2, L-Aspartyl-D-serine N-(2,4-dimethyl-3-pentyl)amide] returned a Sweetness potency of 180 x sucrose.
For the molecule `CC1(C)SC(C)(C)C1NC(=O)[C@@H](CO)NC(=O)[C@@H](N)CC(=O)O` [Example 3, L-Aspartyl-D-serine N-(2,2,4,4-tetramethylthietan-3-yl)amide], the “Sweetness potency factors used to calculate the theoretical sweetness of the blends” value in the test with taste panel is 1200 x sucrose. For the same molecule, in the test with expert taste panel, the Sweetness potency was 1200 x sucrose.
Regarding `CC1(C)C(NC(=O)[C@@H](CO)NC(=O)[C@@H](N)CC(=O)O)C(C)(C)S1(=O)=O` [Example 4, L-Aspartyl-D-serine N-(2,2,4,4-tetamethyl-1,1-dioxothietan-3-yl)amide], the Sweetness potency with expert taste panel turned out to be 850 x sucrose.
For `COC[C@@H](NC(=O)[C@@H](N)CC(=O)O)C(=O)NC(C1CC1)C1CC1` [Example 6, L-Aspartyl-D-O-methylserine N-(dicyclopropylcarbinyl)amide], the Sweetness potency in the test on expert taste panel is 85 x sucrose.
Molecule `COC[C@@H](NC(=O)[C@@H](N)CC(=O)O)C(=O)NC1C(C)(C)SC1(C)C` [Example 7] yielded a Sweetness potency with expert taste panel of 320 x sucrose.
In the test on expert taste panel, `COC[C@@H](NC(=O)[C@@H](N)CC(=O)O)C(=O)NC1C(C)(C)S(=O)(=O)C1(C)C` [Example 8, L-Aspartyl-D-O-methylserine N-(2,2,4,4-tetramethyl-1,1-dioxothietan-3-yl)amide] yielded a Sweetness potency of 200 x sucrose.
Take `CC(C)OC(=O)[C@@H](C)NC(=O)[C@@H](N)CC(=O)O` [L-aspartyl-D-alanine isopropyl ester] (H-Asp-[dA]-OiPr): the Sweetness potency result in test [1] is listed as “up to 125 x sucrose”.
For `CCCOC(=O)[C@@H](CO)NC(=O)[C@@H](N)CC(=O)O` [L-aspartyl-D-serine n-propyl ester], in test [1] (5% sucrose standard, Ariyoshi et al.), the “times as sweet as a 5% sucrose standard” value is listed as 320 times.
With `COC(=O)C(NC(=O)[C@@H](N)CC(=O)O)C(=O)OC1CCCCC1C` (stereo partly drawn) [L-aspartylaminomalonic acid methyl 2-methylcyclohexyl diester], in test [1], the Sweetness potency is 6600 x sucrose.
`C[C@@H](NC(=O)[C@@H](N)CC(=O)O)C(=O)NC1CCCCC1` [cyclohexyl]: the Sweetness potency in test [1] was 100 x sucrose.
Turning to `CC(C)CNC(=O)[C@@H](C)NC(=O)[C@@H](N)CC(=O)O` [isobutyl], the Sweetness potency in test [1] is 100 x sucrose.
With `CCCCNC(=O)[C@@H](C)NC(=O)[C@@H](N)CC(=O)O` [n-butvlamide] (H-Asp-[dA]-NHBu), the Sweetness potency in test [1] is recorded as 125 x sucrose.
On to `CCC(C)NC(=O)[C@@H](C)NC(=O)[C@@H](N)CC(=O)O` (some centres unmarked) [secondary butyl], for which the Sweetness potency in test [1] is reported as 100 x sucrose.
Turning to `O=C1NS(=O)(=O)c2ccccc21.[Na]` [sodium saccharin], in the test on taste panel, the “Sweetness potency factors used to calculate the theoretical sweetness of the blends” value is given as 300 x sucrose.
